Assay results as given in patent US8026069B2, “Process for identification of compounds for modulating the activity of sodium/calcium exchange transporter” (Sanofi-Aventis Deutschland GmbH, priority 2004, dated 2011).

Target: T1, NCX1-containing HEK membrane fragments (human cardiac sodium calcium exchanger NCX-1) (Homo sapiens, UniProt P32418)
T1 construct: expressed in transfected cells; host or cells: HEK-293 (Flp-In T-Rex-293-NCX1, DSM ACC2670), doxycycline-induced; membrane fragments
Assay: cell free electrophysiological sensor chip (SurfE2R) NCX assay, current on Ca2+ concentration jump
Type: biochemical
Conditions: 5 mM
Description: 10-30 μl, for example, of NCX-containing membrane fragments were applied and circulated on the sensor chip and preferably incubated for at least 12 hours at 4° C. In preferred cases of experiments the NCX protein is a human NCX1 protein. The capacitance of the protein-loaded sensor chip was preferably around 100 nF cm^−2 and the conductance G1s preferably around 10 nS cm^−2. The principal of the assay is to test the electrical activity of NCX protein in the absence of the inhibitor and afterwards in the presence of the inhibitor. For this reason the NCX-sensor chip is rinsed with a sequence of solutions, which activate NCX. In general, there is the possibility to test whether an inhibitor is reversible. In this case after the inhibitor application the solutions are changed back to inhibitor-free conditions. Before the experiment the solution reservoirs of the chip are filled with the following preferred solutions: washing buffer: 40 mM KCl, 100 mM NaCl, 4 mM MgCl2, 30 mM HEPES/NMG pH 7.4; non-activating solution: 140 mM KCl, 4 mM MgCl2, 30 mM HEPES/NMG pH 7.4; activating solution: 140 mM KCl, 4 mM MgCl2, 30 mM HEPES/NMG pH 7.4, 0.5 mM CaCl2. […]
For the determination of its activity, the NCX protein was treated consecutively with a washing, non-activating and activating solution and the electrical current was measured when changing from […] to activating treatment. […]

SMILES: [Ni+2] [Ni^2+]
- effect on NCX current in control experiments: diminished
